Where two headings read alike, the source gives them in different places.
Experiments:
[1] = biological target: human NK1 receptor (Homo sapiens, UniProt P25103); assay: NK1 receptor binding, [3H]substance P displacement, CHO cell membranes
[2] = biological target: T1, Recombinant human NK3 (hNK3) receptor (Homo sapiens, UniProt P29371); assay: NK3 receptor binding, [3H]SR142801 displacement, membrane preparations
T1 construct: expressed in transfected cells
T1 sequence (P29371 1-465): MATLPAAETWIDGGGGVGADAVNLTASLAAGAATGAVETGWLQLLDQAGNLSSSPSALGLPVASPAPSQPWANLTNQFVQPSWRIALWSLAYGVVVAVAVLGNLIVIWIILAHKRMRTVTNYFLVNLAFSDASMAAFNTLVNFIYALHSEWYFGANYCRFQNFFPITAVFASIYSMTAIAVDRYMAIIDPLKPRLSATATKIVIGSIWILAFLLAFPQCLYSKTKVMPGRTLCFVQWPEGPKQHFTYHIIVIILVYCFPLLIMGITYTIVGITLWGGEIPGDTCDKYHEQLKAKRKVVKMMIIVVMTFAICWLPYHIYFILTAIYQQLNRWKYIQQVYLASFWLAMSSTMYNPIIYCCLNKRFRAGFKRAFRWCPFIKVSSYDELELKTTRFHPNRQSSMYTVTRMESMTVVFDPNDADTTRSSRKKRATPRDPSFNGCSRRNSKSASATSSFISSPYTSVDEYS
How it was run: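 hNK3 membranes (~2.5 μg/well) incubated 90 min at room temperature in 50 mM Tris-HCl pH 7.4 with 0.1% BSA, 4 mM MnCl2, 1 μM phosphoramidon. Nonspecific binding defined with 10 μM SB222200; bound [3H]SR142801 separated by filtration on PEI-soaked GF/C filters and counted by scintillation.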

[3] = first value of the cell pKi NK1/NK3, human NK1 receptor, [3H]substance P
[4] = second value of the cell pKi NK1/NK3, hNK3 receptor, [3H]SR142801
[5] = first value of the cell NK1/NK3, read-out: pKi NK1 (converted)
[6] = second value of the cell NK1/NK3, read-out: pKi NK3 (converted)

Sequence of human NK1 receptor (P25103 whole entry): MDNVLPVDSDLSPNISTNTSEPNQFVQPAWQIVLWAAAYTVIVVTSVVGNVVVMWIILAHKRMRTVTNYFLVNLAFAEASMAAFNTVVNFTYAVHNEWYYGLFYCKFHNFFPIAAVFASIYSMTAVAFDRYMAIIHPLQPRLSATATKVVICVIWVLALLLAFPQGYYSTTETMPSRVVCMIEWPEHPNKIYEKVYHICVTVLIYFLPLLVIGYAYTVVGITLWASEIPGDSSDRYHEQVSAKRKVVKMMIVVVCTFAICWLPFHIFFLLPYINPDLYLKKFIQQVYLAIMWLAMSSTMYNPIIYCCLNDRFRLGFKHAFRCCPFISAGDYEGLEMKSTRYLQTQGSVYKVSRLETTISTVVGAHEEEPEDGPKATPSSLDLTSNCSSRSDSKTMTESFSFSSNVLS

SMILES	Ki [1, 3] [nM]	Ki [2, 4] [nM]	Ki [1, 5] [nM]	Ki [2, 6] [nM]	other results
CN(C(=O)C(C)(C)c1cc(C(F)(F)F)cc(C(F)(F)F)c1)c1cnc(N2CCC(CO)CC2)cc1-c1ccccc1Cl [Example 52, 2-(3,5-Bis-trifluoromethyl-phenyl)-N-[4′-(2-chloro-phenyl)-4-hydroxymethyl-3,4,5,6-tetrahydro-2H-[1,2′]bipyridinyl-5′-yl]-N-methyl-isobutyramide]	1.1	7.94	–	–	–
Cc1cc(F)ccc1-c1cc(N2C[C@@H](O)C[C@H]2CO)ncc1N(C)C(=O)C(C)(C)c1cc(C(F)(F)F)cc(C(F)(F)F)c1 [Example 238, (2S,4S)-2-(3,5-Bis-trifluoromethyl-phenyl)-N-[4-(4-fluoro-2-methyl-phenyl)-6-(4-hydroxy-2-hydroxymethyl-pyrrolidin-1-yl)-pyridin-3-yl]-N-methyl-isobutyramide]	–	–	1.23	1.02	–
Cc1cc(C)cc(C(C)(C)C(=O)N(C)c2cnc(N3C[C@H](O)C[C@H]3CO)cc2-c2ccc(F)cc2C)c1 [Example 33, (2S,4R)-2-(3,5-Dimethyl-phenyl)-N-[4-(4-fluoro-2-methyl-phenyl)-6-(4-hydroxy-2-hydroxymethyl-pyrrolidin-1-yl)-pyridin-3-yl]-N-methyl-isobutyramide]	1.17	3.02	–	–	–
CN(C(=O)C(C)(C)c1cc(C(F)(F)F)cc(C(F)(F)F)c1)c1cnc(N2C[C@H](O)C[C@H]2CO)cc1-c1cc(Cl)ccc1Cl [Example 226, (2S,4R)-2-(3,5-Bis-trifluoromethyl-phenyl)-N-[4-(2,5-dichloro-phenyl)-6-(4-hydroxy-2-hydroxymethyl-pyrrolidin-1-yl)-pyridin-3-yl]-N-methyl-isobutyramide]	–	–	7.76	16.6	–
Cc1cc(C)cc(C(C)(C)C(=O)N(C)c2cnc(N3CCC[C@H]3CO)cc2-c2ccc(F)cc2C)c1 [Example 32, (S)-(3,5-Dimethyl-phenyl)-N-[4-(4-fluoro-2-methyl-phenyl)-6-(2-hydroxymethyl-pyrrolidin-1-yl)-pyridin-3-yl]-N-methyl-isobutyramide]	–	–	–	–	pKi NK1 [1, 3]: 8.51; pKi NK3 [2, 4]: 8.52
Cc1cc(F)ccc1-c1cc(N2CCC(O)C2)ncc1N(C)C(=O)C(C)(C)c1cc(C(F)(F)F)cc(C(F)(F)F)c1 (racemic) [Example 110, (RS)-2-(3,5-Bis-trifluoromethyl-phenyl)-N-[4-(4-fluoro-2-methyl-phenyl)-6-(3-hydroxy-pyrrolidin-1-yl)-pyridin-3-yl]-N-methyl-isobutyramide]	2.63	13.8	–	–	–
COc1cc(Cl)cc(C(C)(C)C(=O)N(C)c2cnc(N3CCC[C@H]3CO)cc2-c2ccccc2Cl)c1 [Example 7, (S)-2-(3-Chloro-5-methoxy-phenyl)-N-[4-(2-chloro-phenyl)-6-(2-hydroxymethyl-pyrrolidin-1-yl)-pyridin-3-yl]-N-methyl-isobutyramide]	4.79	1.78	–	–	–
Cc1ccccc1-c1cc(N2C[C@H](O)[C@@H](O)C2)ncc1N(C)C(=O)C(C)(C)c1cc(C(F)(F)F)cc(C(F)(F)F)c1 [Example 183, (3S,4S)-2-(3,5-Bis-trifluoromethyl-phenyl)-N-[6-(3,4-dihydroxy-pyrrolidin-1-yl)-4-o-tolyl-pyridin-3-yl]-N-methyl-isobutyramide]	1.1	26.9	–	–	–
CN(C(=O)C(C)(C)c1cc(C(F)(F)F)cc(C(F)(F)F)c1)c1cnc(N2C[C@@H](O)C[C@H]2CO)cc1-c1ccc(Cl)cc1Cl [Example 236, (2S,4S)-2-(3,5-Bis-trifluoromethyl-phenyl)-N-[4-(2,4-dichloro-phenyl)-6-(4-hydroxy-2-hydroxymethyl-pyrrolidin-1-yl)-pyridin-3-yl]-N-methyl-isobutyramide]	–	–	1.78	1.78	–
CN(C(=O)C(C)(C)c1cc(C(F)(F)F)cc(C(F)(F)F)c1)c1cnc(N2C[C@H](O)[C@@H](O)C2)cc1-c1ccccc1Cl [Example 182, (3S,4S)-2-(3,5-Bis-trifluoromethyl-phenyl)-N-[4-(2-chloro-phenyl)-6-(3,4-dihydroxy-pyrrolidin-1-yl)-pyridin-3-yl]-N-methyl-isobutyramide]	0.933	32.4	–	–	–
Cc1ccccc1-c1cc(N2C[C@H](O)C[C@H]2CO)ncc1N(C)C(=O)C(C)(C)c1cc(Cl)cc(Cl)c1 [Example 12, (2S,4R)-2-(3,5-Dichloro-phenyl)-N-[6-(4-hydroxy-2-hydroxymethyl-pyrrolidin-1-yl)-4-o-tolyl-pyridin-3-yl]-N-methyl-isobutyramide]	1.12	1.38	–	–	–
Cc1ccc(-c2cc(N3C[C@H](O)C[C@H]3CO)ncc2N(C)C(=O)C(C)(C)c2cc(C(F)(F)F)cc(C(F)(F)F)c2)cc1 [Example 200, (2S,4R)-2-(3,5-Bis-trifluoromethyl-phenyl)-N-[6-(4-hydroxy-2-hydroxymethyl-pyrrolidin-1-yl)-4-p-tolyl-pyridin-3-yl]-N-methyl-isobutyramide]	2.34	18.2	–	–	–
Cc1cc(F)ccc1-c1cc(N(C)C(CO)CO)ncc1N(C)C(=O)C(C)(C)c1cc(C(F)(F)F)cc(C(F)(F)F)c1 [Example 196, 2-(3,5-Bis-trifluoromethyl-phenyl)-N-{4-(4-fluoro-2-methyl-phenyl)-6-[(2-hydroxy-1-hydroxymethyl-ethyl)-methyl-amino]-pyridin-3-yl}-N-methyl-isobutyramide]	1.74	4.57	–	–	–
Cc1cc(F)ccc1-c1cc(N2C[C@H](O)C[C@H]2CO)ncc1N(C)C(=O)C(C)(C)c1cc(Cl)cc(OC(F)F)c1 [Example 39, (2S,4R)-2-(3-Chloro-5-difluoromethoxy-phenyl)-N-[4-(4-fluoro-2-methyl-phenyl)-6-(4-hydroxy-2-hydroxymethyl-pyrrolidin-1-yl)-pyridin-3-yl]-N-methyl-isobutyramide]	1.05	1.29	–	–	–
CN(C(=O)C(C)(C)c1cc(C(F)(F)F)cc(C(F)(F)F)c1)c1cnc(N2C[C@@H](O)C[C@H]2CO)cc1-c1ccc(F)cc1C=O [Example 239, (2S,4S)-2-(3,5-Bis-trifluoromethyl-phenyl)-N-[4-(4-fluoro-2-formyl-phenyl)-6-(4-hydroxy-2-hydroxymethyl-pyrrolidin-1-yl)-pyridin-3-yl]-N-methyl-isobutyramide]	–	–	1.62	1.48	–
CN(C(=O)C(C)(C)c1cc(C(F)(F)F)cc(C(F)(F)F)c1)c1cnc(N2C[C@H](O)C[C@H]2CO)cc1-c1ccc(Cl)c(Cl)c1 [Example 135, (2S,4R)-2-(3,5-Bis-trifluoromethyl-phenyl)-N-[4-(3,4-dichloro-phenyl)-6-(4-hydroxy-2-hydroxymethyl-pyrrolidin-1-yl)-pyridin-3-yl]-N-methyl-isobutyramide]	4.27	31.6	–	–	–
COc1ccccc1-c1cc(N2C[C@@H](O)C[C@H]2CO)ncc1N(C)C(=O)C(C)(C)c1cc(C(F)(F)F)cc(C(F)(F)F)c1 [Example 244, (2S,4S)-2-(3,5-Bis-trifluoromethyl-phenyl)-N-[6-(4-hydroxy-2-hydroxymethyl-pyrrolidin-1-yl)-4-(2-methoxy-phenyl)-pyridin-3-yl]-N-methyl-isobutyramide]	–	–	1	7.08	–
CN(C(=O)C(C)(C)c1cc(C(F)(F)F)cc(C(F)(F)F)c1)c1cnc(N2CCC(NS(C)(=O)=O)CC2)cc1-c1ccccc1Cl [Example 113, 2-(3,5-Bis-trifluoromethyl-phenyl)-N-[4′-(2-chloro-phenyl)-4-methanesulfonylamino-3,4,5,6-tetrahydro-2H-[1,2′]bipyridinyl-5′-yl]-N-methyl-isobutyramide]	5.75	3.47	–	–	–
Cc1cc(F)ccc1-c1cc(N(CCO)CCO)ncc1N(C)C(=O)C(C)(C)c1cc(C(F)(F)F)cc(C(F)(F)F)c1 [Example 84, N-[6-[Bis-(2-hydroxy-ethyl)-amino]-4-(4-fluoro-2-methyl-phenyl)-pyridin-3-yl]-2-(3,5-bis-trifluoromethyl-phenyl)-N-methyl-isobutyramide]	3.39	1.74	–	–	–
CCN([C@H]1CCN(c2cc(-c3ccc(F)cc3C)c(N(C)C(=O)C(C)(C)c3cc(C(F)(F)F)cc(C(F)(F)F)c3)cn2)C1)S(C)(=O)=O [Example 106]	0.589	4.68	–	–	–
Cc1cc(F)ccc1-c1cc(N2CC(F)(F)C[C@H]2CO)ncc1N(C)C(=O)C(C)(C)c1cc(C(F)(F)F)cc(C(F)(F)F)c1 [Example 300, (S)-2-(3,5-Bis-trifluoromethyl-phenyl)-N-[6-(4,4-difluoro-2-hydroxymethyl-pyrrolidin-1-yl)-4-(4-fluoro-2-methyl-phenyl)-pyridin-3-yl]-N-methyl-isobutyramide]	–	–	0.955	0.49	–
CN(C(=O)C(C)(C)c1cc(C(F)(F)F)cc(C(F)(F)F)c1)c1cnc(N2CC[C@H](O)[C@H]2CO)cc1-c1ccc(F)cc1C=O [Example 273, (2R,3S)-2-(3,5-Bis-trifluoromethyl-phenyl)-N-[4-(4-fluoro-2-formyl-phenyl)-6-(3-hydroxy-2-hydroxymethyl-pyrrolidin-1-yl)-pyridin-3-yl]-N-methyl-isobutyramide]	–	–	1.45	1.55	–
